Where two headings read alike, the source gives them in different places.

The source of these data is US20080255134A1 (Artesian Therapeutics, Inc., priority 2004, published 2008).

In assay [1] the test system is White New Zealand male rabbits. The assay can be described thus: In vivo hemodynamic effects of compounds administered alone (Protocol 2). Also noted: species or system rabbit. The settings on record: for mean arterial pressure: doses that completely diminished isoproterenol-dependent increase in heart rate, Protocol 2, FIG. 15; for left ventricular contractility when administered alone: protocol 2, relative to control, FIGS. 2, 12. As to the method:
(§1) Studies were performed on White New Zealand male rabbits (2-3 kg weight). Animals were initially anesthetized with ketamine (50 mg/kg; IM) and xylazine (6 mg/kg, IM). Subsequently, animals were intubated (via tracheotomy; 3 mm tube) and ventilated with 2% isoflurane (mixed in 95% O2+5% CO2). Each rabbit was instrumented for LV pressure (3F Millar catheter) through right carotid artery, arterial pressure (3F catheter, Cook Instruments) through left femoral artery, which was connected to a fluid-filled pressure transducer (BD Instruments), and ECG. Both pressure transducers were zeroed against atmospheric pressure, and calibrated before each study using an analog manometer. Upon completion of instrumentation, isoflurane was reduced to 1.25%, and the animal was covered for maintenance of body core temperature. Arterial and LV blood pressures (LVP) and the ECG signals were simultaneously digitally recorded on a PC. The recording system (Gould Instruments) and the corresponding software (Ponema, Gould Instruments) facilitated detailed calculation of various parameters directly from all signals and record on a separate file with a 1 sec resolution. Upon completion of the study protocol, rabbits were euthenized by isoflurane overdose (5% for at least 1 minute) and cardiac arrest through IV infusion of 5 ml 3 molar potassium chloride.
(§2) Once the physiological variables were stable, effects of each drug on hemodynamics and ECG were determined based on two different protocols: 1) infusion of a compound of the present invention to determine the effects of the compound itself mainly on contractility, and other hemodynamic indices; and 2) infusion of a compound of the present invention while the system was challenged with 0.5 ug/kg isoproterenol to determine the beta-adrenergic antagonism properties of each tested compound.
(§3) White New Zealand male rabbits (2-3 kg) were anesthetized and ventilated (95% O2+5% CO2) with 1.25% isoflurane. Each animal was instrumented for LV pressure (Millar, through left carotid artery), arterial pressure (left femoral artery), infusion (jugular vein), and electrocardiogram. The animals were administered intravenously based on one of these protocols:
Protocol 2: PDE3 inhibition (effects of compounds when administered alone).

The next assay relates to α1-adrenergic receptor. The assay can be described thus: Non-selective α1-adrenergic receptor assay using rat forebrain membranes. In kind it is binding. As to the method: (§4) The ability of Compounds 25 and 8c to inhibit PDE3 and β-adrenergic receptor activity was examined both in vitro and in vivo. […] Non-selective β-adrenergic and β1-adrenergic radioligand binding assays were performed using rat cortical membranes; β2-adrenergic receptor assays were performed using membranes isolated from CHO cells expressing human, recombinant b2-adrenergic receptor; non-selective α1-adrenergic receptor assays were performed using rat forebrain membranes; and PDE3 binding assays were performed on human platelets. Values in percent illustrate percent inhibition at 1000 nM concentration.

Assay [2] concerns White New Zealand male rabbits. Put plainly: In vivo β-adrenergic blockade, isoproterenol challenge (Protocol 1). As to conditions: for decrease of left ventricular contractility (% of isoproterenol effect): doses that completely diminished isoproterenol-dependent increase in heart rate: atenolol 1 mg/kg, carvedilol 0.3 mg/kg, Compound 8c 1 mg/kg, mean±SEM. Also noted: species or system rabbit. As to the method: as §1, §2, §3
Protocol 1: β-adrenergic blockade (isoproterenol challenge).

The target in another assay is T1, β1-adrenergic receptor (Rattus norvegicus, UniProt P18090).
T1 construct: from tissue; host or cells: rat cortical membranes
Put plainly: β1-adrenergic radioligand binding assay using rat cortical membranes. The settings on record: at 1000 nM concentration, read-out: β1-adrenergic percent inhibition. Here is the method:
(§5) Non-selective β-adrenergic and β1-adrenergic radioligand binding assays were performed using rat cortical membranes; β2-adrenergic receptor assays were performed using membranes isolated from CHO cells expressing human, recombinant b2-adrenergic receptor; non-selective α1-adrenergic receptor assays were performed using rat forebrain membranes; and PDE3 binding assays were performed on human platelets. Values in percent illustrate percent inhibition at 1000 nM concentration.

For assay [3], the system named is naive anesthetized canines. The assay can be described thus: Contractility in naive anesthetized canines (protocol 2). In kind it is in vivo, canine. As to conditions: administered alone (protocol 2), FIG. 17.
Assay [4] concerns the target T2, human recombinant beta-1 receptors (Homo sapiens, UniProt P08588).
T2 construct: expressed in transfected cells; host or cells: CHO-REX16 cells
Put plainly: β1-receptor radioligand binding, [125I] iodocyanopindolol, CHO-REX16 cells. The settings on record: at 100 nM. Here is the method: […] receptor binding was measured in human recombinant beta-1 receptors expressed in CHO-REX16 cells, using [^125I] (-) iodocyanopindolol (2000 Ci/mmol) as the radioligand, as described in Kalaria et al., J. Neurochem. 53: 1772-81 (1998), and Minneman et al., Mol. Pharmacol. 16: 34-46 (1979).

In the next assay the target is T3, PDE3 (Homo sapiens, UniProt Q14432).
T3 construct: from tissue; host or cells: human platelets
The assay can be described thus: In vitro assay for cAMP PDE-3 inhibitory activity. The assay is classed as biochemical. The settings on record: human platelet cyclic AMP phosphodiesterase, bound stated. As to the method:
Human platelet cyclic AMP phosphodiesterase was prepared according to the method of Alvarez et al., Mol. Pharmacol. 29: 554 (1986). The PDE incubation medium contained 10 mM Tris-HCl buffer, pH 7.7, 10 mM MgSO4, and 1 μM […] (0.2 μCi) in a total volume of 1.0 mL. Test compounds were dissolved in DMSO immediately prior to addition to the incubation medium, and the resulting mixture was allowed to stand for 10 minutes prior to the addition of enzyme. Following the addition of PDE, the contents were mixed and incubated for 10 minutes at 30° C. Three assays each were performed for each of five test compound concentrations, the mean of the determinations (n=3) at each concentration was plotted, and IC50 values were determined graphically.
as §4

Assay [5] addresses T4, human recombinant beta-2 receptors (Homo sapiens, UniProt P07550).
T4 construct: expressed in transfected cells; host or cells: CHO-WT21 cells
Put plainly: β2-receptor radioligand binding, [125I] iodocyanopindolol, CHO-WT21 cells. As to conditions: at 100 nM. As to the method: as §5

[6] abbreviates: read-out: PDE IC50 inhibition values.

T3 sequence (Q14432 whole entry): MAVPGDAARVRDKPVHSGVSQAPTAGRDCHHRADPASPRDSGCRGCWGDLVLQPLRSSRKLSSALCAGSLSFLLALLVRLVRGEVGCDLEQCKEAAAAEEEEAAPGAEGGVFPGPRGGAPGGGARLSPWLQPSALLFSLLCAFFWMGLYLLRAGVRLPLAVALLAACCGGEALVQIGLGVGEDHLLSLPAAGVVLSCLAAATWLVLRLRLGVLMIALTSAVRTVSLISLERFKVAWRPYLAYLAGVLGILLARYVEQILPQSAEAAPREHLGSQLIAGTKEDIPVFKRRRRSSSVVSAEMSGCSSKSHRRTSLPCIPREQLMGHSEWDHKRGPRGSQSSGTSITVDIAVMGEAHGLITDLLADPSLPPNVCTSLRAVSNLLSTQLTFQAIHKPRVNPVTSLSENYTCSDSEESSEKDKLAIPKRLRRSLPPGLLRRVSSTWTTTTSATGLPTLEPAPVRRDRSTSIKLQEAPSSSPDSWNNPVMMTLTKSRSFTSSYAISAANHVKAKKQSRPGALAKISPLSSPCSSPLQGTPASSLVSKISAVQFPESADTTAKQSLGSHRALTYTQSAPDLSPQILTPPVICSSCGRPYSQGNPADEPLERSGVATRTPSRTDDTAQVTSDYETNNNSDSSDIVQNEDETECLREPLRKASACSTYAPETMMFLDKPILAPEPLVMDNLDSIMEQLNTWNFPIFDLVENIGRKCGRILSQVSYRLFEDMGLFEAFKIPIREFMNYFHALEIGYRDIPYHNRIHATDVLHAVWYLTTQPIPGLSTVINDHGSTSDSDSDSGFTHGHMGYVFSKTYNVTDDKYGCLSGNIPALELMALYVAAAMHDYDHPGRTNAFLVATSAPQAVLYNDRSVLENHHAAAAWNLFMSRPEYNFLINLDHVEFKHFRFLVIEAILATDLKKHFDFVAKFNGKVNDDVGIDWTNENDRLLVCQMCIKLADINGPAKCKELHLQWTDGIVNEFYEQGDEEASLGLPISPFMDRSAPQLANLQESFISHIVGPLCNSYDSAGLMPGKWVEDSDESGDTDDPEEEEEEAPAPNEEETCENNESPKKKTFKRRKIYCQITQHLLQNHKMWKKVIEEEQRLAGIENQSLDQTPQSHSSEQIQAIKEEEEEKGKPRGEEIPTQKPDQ
T4 sequence (P07550 whole entry): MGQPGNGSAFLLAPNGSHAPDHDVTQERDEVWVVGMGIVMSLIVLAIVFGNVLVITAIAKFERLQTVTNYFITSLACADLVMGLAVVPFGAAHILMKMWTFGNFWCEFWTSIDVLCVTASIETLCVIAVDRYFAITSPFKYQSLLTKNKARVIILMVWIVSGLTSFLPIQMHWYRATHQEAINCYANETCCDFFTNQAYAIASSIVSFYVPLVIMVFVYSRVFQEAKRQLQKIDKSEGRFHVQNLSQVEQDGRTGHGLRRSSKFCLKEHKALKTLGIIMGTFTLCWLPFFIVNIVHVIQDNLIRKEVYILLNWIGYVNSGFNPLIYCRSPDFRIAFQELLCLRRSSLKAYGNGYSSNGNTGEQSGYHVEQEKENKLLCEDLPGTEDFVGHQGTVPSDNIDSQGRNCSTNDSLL
T2 sequence (P08588 whole entry): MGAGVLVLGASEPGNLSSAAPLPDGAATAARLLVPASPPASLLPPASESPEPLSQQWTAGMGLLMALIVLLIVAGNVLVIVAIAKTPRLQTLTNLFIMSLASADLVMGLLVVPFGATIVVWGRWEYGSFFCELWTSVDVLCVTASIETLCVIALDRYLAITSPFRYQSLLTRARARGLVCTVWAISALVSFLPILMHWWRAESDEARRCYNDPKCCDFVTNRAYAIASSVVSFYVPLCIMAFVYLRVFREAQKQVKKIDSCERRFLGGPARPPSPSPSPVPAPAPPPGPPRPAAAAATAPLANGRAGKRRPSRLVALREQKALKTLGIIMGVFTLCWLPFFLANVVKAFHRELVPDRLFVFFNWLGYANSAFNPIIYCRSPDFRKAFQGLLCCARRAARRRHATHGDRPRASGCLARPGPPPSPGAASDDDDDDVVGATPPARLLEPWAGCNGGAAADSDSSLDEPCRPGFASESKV
T1 sequence (P18090 whole entry): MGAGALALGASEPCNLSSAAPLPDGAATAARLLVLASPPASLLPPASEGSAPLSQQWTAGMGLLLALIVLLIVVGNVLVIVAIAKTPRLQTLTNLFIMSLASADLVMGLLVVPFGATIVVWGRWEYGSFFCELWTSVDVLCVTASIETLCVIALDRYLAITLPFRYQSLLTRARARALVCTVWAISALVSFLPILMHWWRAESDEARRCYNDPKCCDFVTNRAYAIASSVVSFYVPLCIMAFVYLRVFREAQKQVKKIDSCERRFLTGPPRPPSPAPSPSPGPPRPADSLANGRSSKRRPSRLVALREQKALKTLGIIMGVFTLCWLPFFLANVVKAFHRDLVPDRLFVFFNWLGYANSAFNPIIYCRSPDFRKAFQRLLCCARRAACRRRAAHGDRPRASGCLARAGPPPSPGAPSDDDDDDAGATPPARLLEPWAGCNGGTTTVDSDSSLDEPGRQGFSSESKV

The inhibition is the drop in the measured response relative to a control, in per cent. Turning to `CC(C)NCC(O)COc1ccc(CC(N)=O)cc1` (stereo not drawn) [Atenolol, reference compound], in assay [1], the mean arterial pressure result is reported as “decreased mean arterial pressure” and the “left ventricular contractility when administered alone” value was “decreased contractility”. Further, in the assay with α1-adrenergic receptor, the “α1-adrenergic IC50, nM” value was “inactive”. Besides, in assay [2], the “decrease of left ventricular contractility (% of isoproterenol effect)” value amounted to 82±2%. Also, the inhibition at 1 µM at β1-adrenergic receptor is 23%.

Usually IC50 stands for the midpoint of a concentration-inhibition curve. What is called ED50 is the midpoint of the dose-response relation. For `COc1ccccc1OCCNCC(O)COc1cccc2[nH]c3ccccc3c12` (stereo not drawn) [Carvedilol, reference compound], in assay [1], the mean arterial pressure result is “decreased mean arterial pressure” and the “left ventricular contractility when administered alone” value is recorded as “decreased contractility”. At α1-adrenergic receptor, the IC50 amounted to […]. For the same molecule, the “contractility (LV+dP/dtmax) at ED50” value in assay [2] (Compound 25 0.3 mg/kg, carvedilol 0.1 mg/kg, Protocol 1, FIG. 13) is “decreased this parameter”. Besides, in assay [2] (Oryctolagus cuniculus, isoproterenol challenge (0.5 μg/kg), intravenous, read-out: ED50, dose that diminished isoproterenol-dependent increase in HR by 50%), the ED50 came out at 0.1 mg/kg. Moreover, the “relaxation properties (Tau) at ED50” value in assay [2] (compared to control, Protocol 1, FIG. 13) is “negative lusitropic effect”. Besides, in assay [2], the “decrease of left ventricular contractility (% of isoproterenol effect)” value amounted to 82±7%. Moreover, in assay [3], the “contractility in naive anesthetized canines” value is listed as “decreased this parameter at the higher doses”.

`O=C1CCC(c2ccc(OCC(=O)N3CCC(NC[C@H](O)COc4ccccc4Br)CC3)c(Cl)c2)=NN1` [Compound 8d, 6-[4-(2-{4-[3-(2-bromo-phenoxy)-2-hydroxy-propylamino]-piperidin-1-yl}-2-oxo-ethoxy)-3-chloro-phenyl]-4,5-dihydro-2H-pyridazin-3-one]: the inhibition at 0.1 µM in assay [4] and in assay [5] was above 25% each time. Also, the figures for the IC50 on PDE3 (read-out: PDE3 inhibition IC50) and at PDE3 (setting [6]) were below 1 µM and below 0.1 µM, respectively.

For the molecule `O=C1CCC(c2ccc(OCC(=O)N3CCC(NC[C@H](O)COc4ccccc4C(F)(F)F)CC3)c(Cl)c2)=NN1` [Compound 8g, 6-[3-chloro-4-(2-{4-[2-hydroxy-3-(2-trifluoromethyl-phenoxy)-propylamino]-piperidin-1-yl}-2-oxo-ethoxy)-phenyl]-4,5-dihydro-2H-pyridazin-3-one], the inhibition at 0.1 µM in assay [4] and in assay [5] was above 25% throughout. The values for the half-inhibitory concentration (IC50) at PDE3 (read-out: PDE3 inhibition IC50) and at PDE3 (setting [6]) were below 1 µM and below 0.1 µM, respectively.

Turning to `Cc1ccc(OC[C@@H](O)CNC2CCN(C(=O)COc3ccc(C4=NNC(=O)CC4)cc3Cl)CC2)cc1` [Compound 8p, 6-(3-chloro-4-{2-[4-(2-hydroxy-3-p-tolyloxy-propylamino)-piperidin-1-yl]-2-oxo-ethoxy}-phenyl)-4,5-dihydro-2H-pyridazin-3-one], the IC50 at PDE3 (read-out: PDE3 inhibition IC50) is below 1 µM. For the same molecule, the inhibition at 0.1 µM in assay [5] was above 25%.

As to `COCCc1ccc(OC[C@@H](O)CNCCOc2ccc(C3=NNC(=O)CC3)cc2Cl)cc1` [Compound 41, 6-[3-Chloro-4-(3-{(S)-2-hydroxy-propylamino]-ethoxy}-phenyl)-4,5-dihydro-2H-pyridazin-3-one], the inhibition at 0.1 µM in assay [4] was above 25%. The IC50 at PDE3 (read-out: PDE3 inhibition IC50) is below 1 µM; at PDE3 (setting [6]) it was below 0.1 µM.

`COCCc1ccc(OC[C@@H](O)CNCCCCOc2ccc(C3=NNC(=O)CC3)cc2Cl)cc1` [Compound 44]: the inhibition at 0.1 µM in assay [4] was above 25%. The IC50 on PDE3 (read-out: PDE3 inhibition IC50) was below 1 µM.

Consider `CC(C)(CNC(=O)COc1ccc(C2=NNC(=O)CC2)cc1Cl)NCC(O)COc1cccc2[nH]c3ccccc3c12` (stereo not drawn) [Compound 49, N-{2-[3-(9H-carbazol-4-yloxy)-2-hydroxy-propylamino]-2-methyl-propyl}-2-[2-chloro-4-(6-oxo-1,4,5,6-tetrahydro-pyridazin-3-yl)-phenoxy]-acetamide], for which the inhibition at 0.1 µM in assay [4] and in assay [5] was above 25% each time. Further, the results for the IC50 on PDE3 (read-out: PDE3 inhibition IC50) and on PDE3 (setting [6]) were below 1 µM and below 0.1 µM, respectively.

With `O=C1CCC(c2ccc(OCC(=O)N3CCC(NCC(O)COc4cccc5[nH]c6ccccc6c45)CC3)c(Cl)c2)=NN1` (stereo not drawn) [Compound 63, 6-[4-(2-{4-[3-(9H-Carbazol-4-yloxy)-2-hydroxy-propylamino]-piperidin-1-yl}-2-oxo-ethoxy)-3-chloro-phenyl]-4,5-dihydro-2H-pyridazin-3-one], the IC50 at PDE3 (read-out: PDE3 inhibition IC50) is below 1 µM.

Consider `O=C1CCC(c2ccc(OCCCNCC(O)COc3cccc4[nH]c5ccccc5c34)c(Cl)c2)=NN1` (stereo not drawn) [Compound 64, 6-(4-{3-[3-(9H-Carbazol-4-yloxy)-2-hydroxy-propylamino]-propoxy}-3-chloro-phenyl)-4,5-dihydro-2H-pyridazin-3-one], for which the IC50 is below 1 µM at PDE3 (read-out: PDE3 inhibition IC50) and below 0.1 µM at PDE3 (setting [6]).

In the case of `O=C(COc1ccc(C2=NNC(=O)CC2)cc1Cl)NCCNCC(O)COc1cccc2[nH]c3ccccc3c12` (stereo not drawn) [Compound 70], the IC50 on PDE3 (read-out: PDE3 inhibition IC50) was below 1 µM; on PDE3 (setting [6]), below 0.1 µM.

With `CC(C)(CNC(=O)COc1ccc(C2=NNC(=O)CC2)cc1Cl)NCC(O)COc1c(Br)ccc2[nH]c3ccccc3c12` (stereo not drawn) [Compound 72a, N-{2-[3-(3-Bromo-9H-carbazol-4-yloxy)-2-hydroxy-propylamino]-2-methyl-propyl}-2-[2-chloro-4-(6-oxo-1,4,5,6-tetrahydro-pyridazin-3-yl)-phenoxy]-acetamide], at PDE3 (read-out: PDE3 inhibition IC50), the IC50 was below 1 µM.

Regarding `O=C1CCC(c2ccc(OCC(=O)N3CC(NCC(O)COc4cccc5[nH]c6ccccc6c45)C3)c(Cl)c2)=NN1` (stereo not drawn) [Compound 75, 6-[4-(2-{3-[3-(9H-Carbazol-4-yloxy)-2-hydroxy-propylamino]-azetidin-1-yl}-2-oxo-ethoxy)-3-chloro-phenyl]-4,5-dihydro-2H-pyridazin-3-one], the IC50 at PDE3 (read-out: PDE3 inhibition IC50) is below 1 µM.
